In assay [1] the test system is M5076 (mouse reticulum cell sarcoma). Put plainly: in vivo antitumor test on M5076 transplanted in BDF1 mice. Conditions: intraperitoneal, 4 times every other day from 10th day. The text has this: in vivo antitumor test on M5076 (mouse reticulum cell sarcoma)
1×10^6 M5076 cells were subcutaneously transplanted into the lateral parts of BDF1 mice (aged 6 to 9 weeks, female). A compound of the present invention was suspended in physiological saline containing 3.5% of dimethyl sulfoxide and 6.5% of Tween 80 and a given amount of the obtained suspension was intraperitoneally administered to the animals 4 times from the 10th day after the transplantation once a day every other day. The control group comprised 10 to 12 animals, while the test group comprised 5 or 6 animals.
On the 21st day after the transplantation, tumors were taken out and weighed. Then the tumor multiplication inhibitory ratio of each test group based on the control group was determined in accordance with the following equation. [formula] T: average tumor weight of the test group. C: average tumor weight of the control group.

For assay [2], the system named is KB cells (human nasopharyngeal cancer cells). Briefly: in vitro Antitumor test on KB cells (MTT). Type of assay: cell-based. Conditions: 72 h, 3 days incubation. As to the method:
in vitro Antitumor test on KB cells (human nasopharyngeal cancer cells)
KB cells suspended in an RPMI1640 medium (mfd. by Nissui Seiyaku K. K.), which contained 10% of fetal calf serum, 100 U/mi of penicillin, 100 μg/ml of streptomycin, 5×10^-5 M of mercaptoethanol and 1 mM of sodium pyruvate, were inoculated in 1.25×10^3 portions (0.1 ml) into wells of a 96-well flat-bottomed microplate and then incubated in an incubator containing 5% of carbon dioxide at 37° C. for a day.
A compound of the present invention was dissolved in dimethyl sulfoxide in a concentration of 20 mg/ml and diluted with a 10% fetal calf serum-RPMI1640 culture medium to a concentration of 100 μg/ml. By using this concentration as the highest level, threefold serial dilution was performed with a 10% fetal calf serum-RPMI1640 culture medium. Then it was added in 0.1 ml portions into the wells of the above-mentioned plate wherein the KB cells had been incubated followed by incubation in the incubator containing 5% of carbon dioxide at 37° C. for 3 days.
After incubating, an MTT (3-(4,5-dimethylthiazol-2-yl)-2,5-diphenyltetrazolium bromide) solution (3.3 mg/ml) was added in 0.05 ml portions into the wells and the incubation was effected for additional 1 hour. After sucking off the supernatant from each well, the formazane thus formed was dissolved in 0.1 ml of dimethyl sulfoxide. Then the absorbance at 540 nm was measured with a microplate reader and employed as an indication of the vital cell count. In accordance with the following equation, the inhibitory ratio was calculated and the 50% inhibitory concentration (IC50) of the test compound was determined. [formula] T: absorbance of a well containing the test commpound. C: absorbance of a well containing no test compound.

SMILES strings stand for the structures. In brackets after ≈: the same amount, converted by molar mass.

As a reminder, the IC50 is the point on the concentration scale where inhibition reaches its midpoint. A low value points to inhibition by little substance. As to `COc1ccc(S(=O)(=O)Nc2cccc3c2Nc2ccccc2S3)cc1` [Example 1, 4-Methoxy-N-(10H-phenothiazin-1-yl)benenesulfonamide], in assay [1] (50 mg/kg/day), the “Inhibitory ratio (tumor weight, 21st day)” value (from here on “Inhibitory ratio”) turned out to be 73% and the “Survival ratio on 21st day” value came to 100%. The compound further registered an IC50 in assay [2] of 0.11 µg/mL (≈ 0.286 µM). With `COc1ccc(S(=O)(=O)Nc2cccc3c2Nc2ccccc2CO3)cc1` [Example 17, N-(5,11-Dihydrpdibenz(b,e)(1,4)oxazepin-6-yl)-4-methoxybenzenesulfonamide], in assay [1] (100 mg/kg/day), the “Inhibitory ratio” value is 81% and the “Survival ratio on 21st day” value is reported as 100%. This compound returned an IC50 in assay [2] of 0.03 µg/mL (≈ 0.0784 µM). Turning to `COc1ccc(S(=O)(=O)Nc2cccc3c2Nc2cc(F)c(F)cc2S3)cc1` [Example 28, N-(7,8-Difluoro-10-pbenothiazin-1-yl)-4-methoxy-benenesulfonamide], in assay [1] (50 mg/kg/day), the “Inhibitory ratio” value is reported as 82% and the “Survival ratio on 21st day” value came to 100%. In assay [2], this compound came in with an IC50 of 0.069 µg/mL (≈ 0.164 µM).

On to `COc1ccc(S(=O)(=O)Nc2cccc3c2Nc2ccc(O)cc2CO3)cc1` [Example 30, N-(5,11-Dibydro-2-bydroxydihenz(b,e)(1,4)oxazepin-6-yl)-4-methoxybenzensulfonamide], for which, in assay [1] (100 mg/kg/day), the “Inhibitory ratio” value came out at 82% and the “Survival ratio on 21st day” value is 100%. The compound further yielded a half-maximal inhibitory concentration (IC50) in assay [2] of 0.028 µg/mL (≈ 0.0703 µM). As for `COc1ccc(S(=O)(=O)Nc2cccc3c2Nc2ccc(F)cc2CN3)cc1` [Example 32, N-(10,11-Dihydro-2-fluoro-5dibenzo(b,e) (1,4)-diazepin-6-yl)-4-methoxybenzenesulfonamide], in assay [1] (25 mg/kg/day), the “Inhibitory ratio” value was 84% and the “Survival ratio on 21st day” value was determined as 100%. The compound also returned an IC50 in assay [2] of 0.082 µg/mL (≈ 0.205 µM).

`COc1ccc(S(=O)(=O)Nc2cccc3c2Nc2cncnc2S3)cc1` [Example 35, 4-Melthoxy-N-(5H-pyrimido(4,5-b)(1,4)benzothizin-6-yl)benzenesulfonamide]: the IC50 in assay [2] came to 0.25 µg/mL (≈ 0.647 µM). The compound `Cc1ccc(S(=O)(=O)Nc2cccc3c2Nc2ccc(O)cc2CO3)cc1` [Example 38, N-(5,11-Ditiydro-2-hydroxydihenz(b,e)(1,4)oxazepin-6-yl)-4-methylbenzenesulfonamide] had a half-maximal inhibitory concentration (IC50) in assay [2] of 0.047 µg/mL (≈ 0.123 µM). The same measure, in the same setting: then `COc1ccc(S(=O)(=O)Nc2cc(F)cc3c2Nc2ccc(O)cc2CO3)cc1` [Example 39, N-(5,11-Dihydro-8-fluoro-2-hdroxydihenz(b,e)(1,4)-oxazepin-6-yl)-4-methoxybenrzenesilfonamide], with 0.26 µg/mL (≈ 0.624 µM); and `COc1ccc(S(=O)(=O)Nc2cccc3c2Nc2ccccc2OC3)cc1` [Example 40, N-(5,11-Dihydrodibenz(b,e)(1,4)oxalelpin-4-yl)-4-methoxybenzenesulfonamide], with 0.032 µg/mL (≈ 0.0837 µM); and `CCN1Cc2ccccc2Nc2c(NS(=O)(=O)c3ccc(OC)cc3)cccc21` [Example 41, N-(10,11-Dihydro-10-ethyl-5H-dihenzo(b,e)(1,4)-diazepin-6-yl)-4-meltoxybenzenesulfonamnide], with 0.28 µg/mL (≈ 0.684 µM). `Cc1ccc(S(=O)(=O)Nc2cccc3c2Nc2ccc(O)cc2CO3)s1` [Example 42, N-(5,11-Dihydro-2-hydroxydihenz(b,e)(1,4)oxazepin-6-yl)-5-methyl-2-thiopbhenesulfonamide] had an IC50 in assay [2] of 0.13 µg/mL (≈ 0.335 µM). This IC50 lies about 2.2-fold lower than the previous one. Still for that read-out and setting: then `COc1ccc(S(=O)(=O)Nc2cccc3c2Nc2ccc(NC(C)=O)cc2CN3)cc1` [Example 43, N-(2-Acetylamino-10,11-dibydro-5H-dibhenz(b,e)(1,4)-diazepin-6-yl)-4-methoxybenzenesulfonamide], with 0.22 µg/mL (≈ 0.502 µM). In the case of `COc1ccc(S(=O)(=O)Nc2cccc3c2Nc2ccc(OCCCO)cc2CN3)cc1` [Example 44, N-(10,11-Dihydro-2-(3-hydroxypropyloxy)-5H-dibenzo-(b,e)(1,4)(diazepin-6-yl)4-metbhoxybenzenesulfonamide], the IC50 in assay [2] came to 0.077 µg/mL (≈ 0.169 µM). Regarding `COc1ccc(S(=O)(=O)Nc2cccc3c2Nc2ccc(F)c(O)c2CO3)cc1` [Example 45, N-(5,11-Dihydro-2-fluoro-1-hydroxydibenz(b,e)-(1,4)oxazepin-6-yl)-4-methoxybenzenesulfonamide], the IC50 in assay [2] stood at 0.016 µg/mL (≈ 0.0384 µM).

As for `COc1ccc(S(=O)(=O)Nc2cccc3c2Nc2c(Cl)cc(F)c(O)c2CN3)cc1` [Example 46, N-(4-Chloro-10,11-dihvdro-2-fluoro-1-hvdroxy-5-dibenzo(b,e)(1,4)diazepin-6-yl)-4-methoxybenzene-sulfonamide], in assay [2], the IC50 was 0.25 µg/mL (≈ 0.556 µM). Same read-out and setting: the figure for `COc1ccc(S(=O)(=O)Nc2cccc3c2Nc2ccc(F)c(O)c2CN3)cc1` [Example 47, N-(10,11-Dihydro-2-fluoro-1-hydroxy-5H-dibenzo(b,e)-(1,4)diazepin-6-yl)-4-methoxybenzenesulfonamide] is 0.078 µg/mL (≈ 0.188 µM); for `COc1ccc(S(=O)(=O)Nc2cccc3c2Nc2ccc(C#N)cc2CN3)cc1` [Example 48, N-(2-Cyano-10,11-dihydro-5H-dibenzo(b,e)(1,4)diazepin-6-yl)-4-methoxybenzenesulfonamide] it is 0.028 µg/mL (≈ 0.0689 µM). Take `COc1ccc(S(=O)(=O)Nc2cccc3c2Nc2ccc(F)cc2NC3)cc1` [Example 49, N-(10,11-Dihydro-8-fluoro-5H-dibenzo(b,e)(1,4)-diazepin-4-yl)-4-methoxybenzenesulfonamide]: half-maximal inhibition in assay [2] (IC50) required 0.08 µg/mL (≈ 0.2 µM).
